Legend:
[1] = Dynamic vapor sorption (DVS); format: physicochemical; settings: for hygroscopicity by DVS: 3 cycles
Description: (§1) DVS samples (5-10 mg) are analyzed using a TA Instruments Q5000 SA powerful dynamic vapor sorption analyzer. The relative humidity is started at about 50% and adjusted to between about 0-90% humidity with about a 10% increase or decrease in humidity for each step for 3 cycles. The weight of the sample is continuously monitored and recorded.

[2] = XRPD of the sample after DVS; format: physicochemical
Description: (§2) XRPD patterns are obtained using a Bruker D8 Advance equipped with a Cu Kα radiation source (λ=1.54 Å), a 9-position sample holder and a LYNXEYE super speed detector. Samples are placed on zero-background, silicon plate holders for analysis. One skilled in the art would recognize that the ° 20 values and the relative intensity values are generated by performing a peak search on the measured data and the d-spacing values are calculated by the instrument from the ° 20 values using Bragg's equation. One skilled in the art would further recognize that the relative intensity for the measured peaks may vary as a result of sample preparation, orientation and instrument used, for example.
as §1

[3] = XRPD after storage at about 40° C. under vacuum for about two weeks; format: physicochemical
Description: as §2

[4] = target: T1, PI3K-delta (Homo sapiens, UniProt O00329); settings: Phase 2 trial, relapsed/refractory marginal zone lymphoma; cited from earlier work
T1 construct: host or cells: patients (clinical trial)
T1 sequence (O00329 whole entry): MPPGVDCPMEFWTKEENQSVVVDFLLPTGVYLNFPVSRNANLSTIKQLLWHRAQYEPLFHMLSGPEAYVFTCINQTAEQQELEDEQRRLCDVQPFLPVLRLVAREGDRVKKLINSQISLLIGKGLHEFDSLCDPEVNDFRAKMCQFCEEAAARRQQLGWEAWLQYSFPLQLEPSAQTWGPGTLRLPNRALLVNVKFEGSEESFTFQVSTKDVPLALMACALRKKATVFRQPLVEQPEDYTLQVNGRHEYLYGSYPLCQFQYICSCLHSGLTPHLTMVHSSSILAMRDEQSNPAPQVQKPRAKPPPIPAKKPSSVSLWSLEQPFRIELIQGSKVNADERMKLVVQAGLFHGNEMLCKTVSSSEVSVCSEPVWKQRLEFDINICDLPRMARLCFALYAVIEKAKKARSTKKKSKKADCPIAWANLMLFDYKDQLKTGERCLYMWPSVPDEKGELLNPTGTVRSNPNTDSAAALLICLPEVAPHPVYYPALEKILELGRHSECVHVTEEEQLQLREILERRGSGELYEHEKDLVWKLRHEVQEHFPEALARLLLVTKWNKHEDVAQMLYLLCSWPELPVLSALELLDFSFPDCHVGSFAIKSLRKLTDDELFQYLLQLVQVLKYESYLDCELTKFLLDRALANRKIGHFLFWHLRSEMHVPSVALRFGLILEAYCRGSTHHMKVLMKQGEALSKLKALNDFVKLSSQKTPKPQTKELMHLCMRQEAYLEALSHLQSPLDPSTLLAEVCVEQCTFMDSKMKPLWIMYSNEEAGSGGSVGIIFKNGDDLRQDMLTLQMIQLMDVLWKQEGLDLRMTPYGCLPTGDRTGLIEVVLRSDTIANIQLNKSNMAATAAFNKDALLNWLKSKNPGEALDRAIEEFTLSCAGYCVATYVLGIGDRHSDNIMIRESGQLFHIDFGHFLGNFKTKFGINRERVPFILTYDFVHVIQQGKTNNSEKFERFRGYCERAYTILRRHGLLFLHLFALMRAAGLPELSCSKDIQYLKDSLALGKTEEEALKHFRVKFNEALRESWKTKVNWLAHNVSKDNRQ
T1 sequence (P27986 whole entry partner): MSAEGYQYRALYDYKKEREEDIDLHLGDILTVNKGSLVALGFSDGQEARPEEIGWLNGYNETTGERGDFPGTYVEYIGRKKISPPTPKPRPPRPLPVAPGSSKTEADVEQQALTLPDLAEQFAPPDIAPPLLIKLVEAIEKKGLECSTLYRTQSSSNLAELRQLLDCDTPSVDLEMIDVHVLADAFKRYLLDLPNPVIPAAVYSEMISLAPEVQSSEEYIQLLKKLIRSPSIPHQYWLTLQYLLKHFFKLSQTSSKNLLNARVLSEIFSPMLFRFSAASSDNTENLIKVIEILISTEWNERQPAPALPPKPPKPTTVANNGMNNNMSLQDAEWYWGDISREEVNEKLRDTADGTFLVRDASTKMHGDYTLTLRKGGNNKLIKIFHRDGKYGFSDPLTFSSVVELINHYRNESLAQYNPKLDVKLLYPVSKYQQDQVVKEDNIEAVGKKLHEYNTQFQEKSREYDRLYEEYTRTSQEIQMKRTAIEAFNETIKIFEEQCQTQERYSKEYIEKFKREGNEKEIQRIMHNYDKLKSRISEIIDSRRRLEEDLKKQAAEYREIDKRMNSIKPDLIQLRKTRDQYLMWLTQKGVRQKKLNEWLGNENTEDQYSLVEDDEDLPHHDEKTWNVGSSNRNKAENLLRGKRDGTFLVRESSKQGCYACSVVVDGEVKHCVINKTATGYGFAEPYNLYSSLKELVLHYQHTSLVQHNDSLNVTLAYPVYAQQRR

Structure (SMILES)	hygroscopicity by DVS [1]	weight change between about 0-90% relative humidity [1] [%]	weight change in the sample over three cycles [1] [%]	solid form by XRPD after DVS [2]	solid form by XRPD after storage [3]	PI3K-delta inhibition in patients [4]	tolerability in patients [4]
CC(C)Oc1ccc(-c2nn([C@@H](C)c3oc4ccc(F)cc4c(=O)c3-c3cccc(F)c3)c3ncnc(N)c23)cc1F [Example 2, amorphous umbralisib monotosylate]	hygroscopic	~4	~0.5	still amorphous	still amorphous	–	–
CC(C)Oc1ccc(-c2nn([C@@H](C)c3oc4ccc(F)cc4c(=O)c3-c3cccc(F)c3)c3ncnc(N)c23)cc1F [umbralisib, (S)-2-(1-(4-amino-3-(3-fluoro-4-isopropoxyphenyl)-1H-pyrazolo[3,4-d]pyrimidin-1-yl)ethyl)-6-fluoro-3-(3-fluorophenyl)-4H-chromen-4-one]	–	–	–	–	–	effective PI3K-delta inhibition	well-tolerated
CC(C)Oc1ccc(-c2nn([C@@H](C)c3oc4ccc(F)cc4c(=O)c3-c3cccc(F)c3)c3ncnc(N)c23)cc1F [Example 1, amorphous umbralisib monotosylate]	hygroscopic	~4	< 1	still amorphous	–	–	–
